Assay results reported in patent publication US20060234934A1, “Composition and Method for Selective Cytostasis” (priority 2005, published 2006).

Tests used:
[1] = system: Malignant melanoma A375 cells; test: 3[H]-thymidine incorporation in A375 cell cultures; format: cell-based
Procedure: Each fraction was reconstituted in 110 μl of Dulbecco's modified Eagle's medium (DMEM) with fetal calf serum (FCS) 5 vol. %, 100 I.U. penicillin, 100 μg streptomycin and 2 nmole glutamine.
Malignant melanoma A375 cells (obtained from the American Type Culture Collection, Rockville, Md.) were counted in a counter (obtained from Coulter Diagnostics, Hialeah, Fla.), and about 4,000 cells were seeded into each well of a 96 well microtiter plate (obtained from Fisher Scientific, Springfield, N.J.) with 200 I.U. penicillin, 200 µg streptomycin and DMEM containing FCS 5 vol. %, 2 nmole glutamine, and […] HEPES (hydroxyethylpiperazine-ethanesulfonic acid buffer) as needed to give a final well volume of […]. […]
The cell cultures were terminated and harvested with a cell harvester (obtained from Flow Laboratories, McLean, Va., under the designation Titertek®), removing the contents of each microtiter plate well onto glass fiber filter paper. […] The strips were placed in scintillation vials and counted in 2 ml scintillation solution (obtained from Fisher Scientific, Springfield, N.J., under the designation Scintiverse®) using a scintillation counter (Model No. LS 100 C. obtained from Beckman Instruments, Somerset, N.J.) to determine the uptake of ^3[H]-thymidine into newly synthesized DNA.

[2] = system: ALL line MOLT-4 (CRL1582); test: 3[H]thymidine uptake in leukemic cell line MOLT-4; format: cell-based, human; details: 50 nG/mL
Procedure: For example, the ALL line MOLT-4 (now denoted CRL1582 by the ATCC) was used for testing a representative cytostatic peptide for its effect on leukemic cells. The testing method described by Kikuwa, et al (1986), which is hereby incorporated herein by reference. In brief, the cells were maintained as a suspension in RPMI 1640 (Gibco) and 10% FCS, 100 u. penicillin G/mL and 100 micrograms streptomycin/mL with 2 mM L-glutamine.
Representative non-toxic cytostatic peptides were tested in still other cancer cell lines.

serine-glutamine-cysteine-glutamic acid-glutamine-glutamic acid-glycine-glycine-phenalalanine-cysteine-arginine-phenylalanine-leucine-leucine-cysteine-proline-serine-arginine-threonine-serine-aspartic acid-isoleucine-glysine-lysine-leucine-glycine-cysteine-glutamic acid-proline-leucine-tryptophan-lysine-cysteine-cysteine-lysine-arginine-tryptophan-glycine-glycine [peak Q]
less 3[H]-thymidine uptake than controls ([1]; HPLC fraction): about 50% | amount sufficient to arrest the proliferations of at least about 100,000 melanoma cells ([1]; melanoma cells): about 50 ng | less 3[H]thymidine uptake than controls [2]: 90-95% | visual appearance of cells [2]: altered “rounded” visual appearance
